From publication PMC6204753, “Non-native autoinducer analogs capable of modulating the SdiA quorum sensing receptor in Salmonella enterica serovar Typhimurium” (Beilstein Journal of Organic Chemistry, 2018)
“Also recorded” adds a separate entry of the source. Read-outs that look alike come from different tables or passages of the source.

Experiments:
[1] = target: T1, SdiA (Salmonella enterica subsp. enterica serovar Typhimurium, UniProt O66040); experiment: S. Typhimurium-pJNS25 SdiA reporter, competitive antagonism against 10 nM L-OOHL; format: cell-based; conditions: for inhibition at 1 µM: read-out: Antagonism 1 μM Inhibition (%); for inhibition at 100 µM: read-out: Antagonism 100 μM Inhibition (%); for Emax: maximal inhibition, 100% minus lowest % activity in presence of 10 nM L-OOHL (2), read-out: inhibition (%)
T1 sequence (O66040 entry or part of it): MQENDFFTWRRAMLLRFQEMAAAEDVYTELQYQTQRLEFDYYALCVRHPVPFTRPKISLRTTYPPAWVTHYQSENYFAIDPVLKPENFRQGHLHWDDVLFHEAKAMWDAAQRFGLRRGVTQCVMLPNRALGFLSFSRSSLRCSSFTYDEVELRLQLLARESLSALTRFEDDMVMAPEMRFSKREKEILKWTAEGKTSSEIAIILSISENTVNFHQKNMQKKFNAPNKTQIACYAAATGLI
Description: (§1) Biological assays for SdiA activity. Cell-based reporter strains that rely on detecting the transcriptional activity of LuxR-type receptors are commonly used to assess the activity of exogenous ligands. We used the S. Typhimurium-pJNS25 reporter strain constructed by Smith and Ahmer and also used by Janssens et al. to examine SdiA activity. This strain naturally produces SdiA and contains a reporter plasmid with the promoter region for srgE fused to the luxABCDE operon of V. fischeri (see Experimental section for details of all strains and plasmids). SdiA activity is thus reported by the production of luciferase and resulting bioluminescence. We also prepared an SdiA reporter in E. coli (JLD271-pJN105SE-pSC11SE) to examine S. Typhimurium SdiA activity in an alternate background and with a different reporter gene output. […] This reporter construct uses an arabinose inducible promoter to produce S. Typhimurium SdiA and the promoter region for srgE fused to lacZ to report SdiA activity. SdiA activity is then measured using standard β-galactosidase assays. In both reporter strains, signal was normalized to the difference between the positive control (10 μM OOHL) and the negative control (1% DMSO; no compound).
(§2) Salmonella SdiA reporter assay. S. Typhimurium-pJNS25 was grown 16–18 h overnight in LB, diluted 1:100 in fresh LB medium, and then incubated for 6 h at 37 °C with shaking at 200 rpm in the presence of compounds (1% DMSO). […] All compounds were screened at 100 μM and 1 μM in triplicate in agonism and antagonism assays. […] Dose–response analyses were performed by preparing dilutions of compounds in DMSO and testing each concentration in the agonism or antagonism assays. Competition dose–response assays (data in Figure 5) were performed in the same manner as the antagonism assays, except instead of OOHL being added to the subculture, the antagonist being tested was added. Non-linear regression curve fits were generated using GraphPad Prism software (version 6) using variable slope (four parameter) dose–response analysis.

[2] = target: T1, SdiA; experiment: S. Typhimurium-pJNS25 SdiA reporter, agonism (luminescence); format: cell-based; conditions: for Emax: read-out: activation (%); for EC50: agonism dose–response
Description: as §1, §2

[3] = 1 μM compound, average ± STD, change in activity from 10 nM 2 (OOHL)
[4] = 100 μM compound, average ± STD, change in activity from 10 nM 2 (OOHL)
[5] = maximal activation of the antagonists (partial agonism), Table 3
[6] = maximal activity (efficacy) from agonism dose–response, 10 μM OOHL = 100%, DMSO = 0%

## CCCCCCCC(=O)OCC(O)CO (racemic) [compound 23, 1-octanoyl-rac-glycerol, reference compound]
[1]; [3]
  inhibition at 1 µM: 8 ± 14%
[1]; [4]
  inhibition at 100 µM: 12 ± 4%
[2]; S. Typhimurium reporter
  activity in the SdiA reporter assay (in words): no agonism; also recorded: no activity

## O=C(Oc1c(Br)cc(Br)cc1CNC(=O)c1ccccc1[N+](=O)[O-])c1ccccc1Cl [19R, reference compound]
[1]; [3]
  inhibition at 1 µM: 43 ± 10%
[1]; [4]
  inhibition at 100 µM: 38 ± 11%
[1]
  Emax: 44%
[2]; [5]
  Emax: 40%

## CCCC(=O)N[C@H]1CCOC1=O [A1, reference compound]
[1]; [3]
  Antagonism 1 μM Inhibition (%): 7 ± 5%
[1]; [4]
  Antagonism 100 μM Inhibition (%): -10 ± 11%
[2]; read-out: EC50
  EC50: 0.578 µM
[2]; [6]
  activation (%): 100%

## CCCCCC(=O)N[C@H]1CCOC1=O [A2]
[1]; [3]
  inhibition at 1 µM: 15 ± 4%
[1]; [4]
  inhibition at 100 µM: 3 ± 1%
[2]; read-out: EC50
  EC50: 0.0209 µM
[2]; [6]
  Emax: 81%

## CCCCCCCC(=O)N[C@H]1CCOC1=O [A3]
[1]; [3]
  Antagonism 1 μM Inhibition (%): 10 ± 8%
[1]; [4]
  Antagonism 100 μM Inhibition (%): 13 ± 14%
[2]; read-out: EC50
  EC50: 0.0181 µM

## CCCCCCCCCCCC(=O)N[C@H]1CCOC1=O [A5]
[1]; [3]
  inhibition at 1 µM: 17 ± 10%
[1]; [4]
  inhibition at 100 µM: 43 ± 4%
[1]
  Emax: > 50%
[2]; [5]
  Emax: 57%

## CCCCCCCCCCCCCCCC(=O)N[C@H]1CCOC1=O [A6]
[1]; [3]
  inhibition at 1 µM: 17 ± 12%
[1]; [4]
  inhibition at 100 µM: 38 ± 5%
[1]; against 10 nM L-OOHL (EC90)
  IC50: 1.75 µM
[1]
  Emax: > 50%
[2]; [5]
  Emax: 20%

## CCCCCCCC(=O)CC(=O)N[C@H]1CCOC1=O [A7]
[1]; [3]
  inhibition at 1 µM: -4 ± 19%
[1]; [4]
  inhibition at 100 µM: -2 ± 10%
[2]; read-out: EC50
  EC50: 0.0266 µM
[2]; [6]
  Emax: 85%

## [N-]=[N+]=NCCCCCCCCCCCC(=O)N[C@H]1CCOC1=O [Az-11]
[1]; [3]
  inhibition at 1 µM: -1 ± 17%
[1]; [4]
  inhibition at 100 µM: -35 ± 6%
[2]
  EC50: 0.125 µM
  Emax: 110%
[2]; [6]
  activation (%): fully agonize

## O=C(Cc1ccc(Br)cc1)N[C@@H]1CCOC1=O [B4]
[1]; [3]
  inhibition at 1 µM: 41 ± 15%
[1]; [4]
  inhibition at 100 µM: 16 ± 11%
[1]
  Emax: 50%
[2]; [5]
  Emax: 52%

## O=C(CCC1CCCCC1)N[C@H]1CCOC1=O [B11]
[1]; [3]
  inhibition at 1 µM: 6 ± 5%
[1]; [4]
  inhibition at 100 µM: 8 ± 14%
[2]; read-out: EC50
  EC50: 0.0501 µM
[2]; [6]
  Emax: 93%

## O=C(CC1CCCC1)N[C@H]1CCOC1=O [B12]
[1]; [3]
  inhibition at 1 µM: 7 ± 7%
[1]; [4]
  inhibition at 100 µM: 14 ± 9%
[2]; read-out: EC50
  EC50: 0.0547 µM
[2]; [6]
  Emax: 93%

## O=C(Cc1cccc(Cl)c1)N[C@H]1CCOC1=O [C6]
[1]; [3]
  inhibition at 1 µM: 9 ± 16%
[1]; [4]
  inhibition at 100 µM: -20 ± 6%
[2]; read-out: EC50
  EC50: 0.0519 µM
[2]; [6]
  Emax: 95%

## O=C(Cc1cccc(Br)c1)N[C@H]1CCOC1=O [C8]
[1]; [3]
  inhibition at 1 µM: 21 ± 10%
[1]; [4]
  inhibition at 100 µM: -22 ± 9%
[2]; read-out: EC50
  EC50: 0.0191 µM
[2]; [6]
  Emax: 96%

## O=C(Cc1ccccc1Br)N[C@H]1CCOC1=O [C9]
[1]; [3]
  inhibition at 1 µM: 9 ± 8%
[1]; [4]
  inhibition at 100 µM: -48 ± 13%
[2]; read-out: EC50
  EC50: 0.0635 µM
[2]; [6]
  Emax: 103%

## O=C(Cc1ccc(I)cc1)N[C@H]1CCOC1=O [C10]
[1]
  inhibition at 1 µM: 28 ± 6%
  inhibition at 100 µM: 27 ± 13%
[2]
  EC50: 0.0472 µM
  Emax: 67%

## O=C(Cc1cccc(I)c1)N[C@H]1CCOC1=O [C11]
[1]; [3]
  inhibition at 1 µM: 15 ± 11%
[1]; [4]
  inhibition at 100 µM: -4 ± 2%
[2]; read-out: EC50
  EC50: 0.0206 µM
[2]; [6]
  Emax: 90%

## O=C(Cc1cccc([N+](=O)[O-])c1)N[C@H]1CCOC1=O [C14]
[1]; [3]
  inhibition at 1 µM: 0%
[1]; [4]
  inhibition at 100 µM: -17 ± 9%
[2]; read-out: EC50
  EC50: 0.0283 µM

## O=C(Cc1ccc(-c2ccccc2)cc1)N[C@H]1CCOC1=O [C18]
[1]; [3]
  inhibition at 1 µM: 11 ± 3%
[1]; [4]
  inhibition at 100 µM: 52 ± 10%
[1]
  Emax: 40%
[2]; [5]
  Emax: 48%

## COc1ccc(CC(=O)N[C@H]2CCOC2=O)cc1 [C24]
[1]; [3]
  Antagonism 1 μM Inhibition (%): -11 ± 3%
[1]; [4]
  Antagonism 100 μM Inhibition (%): 4 ± 16%
[2]; read-out: EC50
  EC50: 0.252 µM
